# Results from patent US10183941B2, “Pyrimidine or pyridopyridone compound and application thereof” (GUANGZHOU BEBETTER MEDICINE TECHNOLOGY CO., LTD., priority 2015, dated 2019).
# Read-outs that look alike come from different tables or passages of the source.
# Tests used:
# ZR-75-1 = experiment: Tumor cell proliferation inhibition (CellTiter-Glo), ZR-75-1; assay type: cell-based; conditions: Homo sapiens, 72 hours, 10% fetal bovine serum, read-out: ZR-75-1 IC50 class
# Description: The content of adenosine triphosphate (ATP) was determined using the CellTiter-Glo Luminescent Cell Viability Assay Kit (Promega, Madison, Wis.) to evaluate cell viability. Tumor cell lines (SW620, ZR-75-1, MDA-MB-231) were purchased from the Cell Resource Center of IBS, Fudan University, Shanghai and the American Type Culture Collection (ATCC). The cell density was determined using Scepter automated cell counter (Millipore # PHCC00000) after the cells were digested with pancreatin in cell culture dishes and resuspended in DPBS medium. The cells were diluted to a solution of 44,000 cells per ml. The cell solution of which density was adjusted was added into the cell assay plate at 90 microliters per well. The well plate was incubated in an incubator with 5% CO2 at 37° C. for 24 hours and then added with test compounds with different concentrations. The cells were incubated with the compounds in the presence of 10% fetal bovine serum for 72 hours. ATP content was assayed using the CellTiter-Glo® Luminescent Cell Viability Assay kit (see instructions of manufacturer) to assess cell growth inhibition. Briefly, 30 μl of CellTiter-Glo® reagent was added to each well, rocked for 10 minutes to induce cell lysis, and […] were detected and recorded with Fluoroskan Ascent FL (Thermo). The maximum signal value was obtained from the cells treated with dimethyl sulfoxide for 72 hours. The minimum signal value was obtained from the separate culture medium (cell number was zero). Inhibition rate %=(maximum signal value−compound signal value)/(maximum signal value−minimum signal value)×100. Data was processed using GraphPad Prism V5.0 (GraphPad Software, San Diego, Calif.) software. IC50 values were calculated by fitting S-shaped dose-response curves.
# [1] = tested on: MDA-MB-231 breast cancer cells; experiment: Cell cycle inhibition experiment (PI staining, flow cytometry); assay type: cell-based; conditions: Homo sapiens, MDA-MB-231 cells, 24 h
# From the text: The cell cycle and apoptosis assay kit (Beyotime, C1052) used in this experiment is an assay kit for analyzing the cell cycle and apoptosis using the classic method of Propidium staining (PI staining). Propidium (PI) is a double-stranded DNA fluorescent dye. The combination of propidium and double-stranded DNA can produce fluorescence, and fluorescence intensity is proportional to the amount of double-stranded DNA. After DNA in cells is stained with propidium, the DNA content of the cells can be measured by flow cytometry, and then the cell cycle and apoptosis can be analyzed according to the distribution of DNA content.
# MDA-MB-231 cells were seeded into a 6-well plate at 3×10^5 per well and cultured for 24 hours.
# In tumor cell cycle, the binding of CDK4 and CDK6 to cyclin D promotes G1 phase into S phase. CDK4/6 inhibitor selectively arrests the G1 phase of tumor cells into S phase. The detection results of the cell cycle of MDA-MB-231 breast cancer cells by flow cytometry indicate that the CDK4/6 inhibitor compounds provided by the present disclosure stop the growth of G1 phase cells and reduce S phase cells in a concentration-dependent manner, as shown in the following table.
# CDK2 = target: T1, CDK2 (Homo sapiens, UniProt P24941); experiment: CDK2 activity inhibition experiment (Caliper mobility shift assay); assay type: biochemical; conditions: enzyme activity inhibition; read-out: CDK2 IC50 class
# T1 construct: purchased Carna 04-103
# Description: After being incubated at 28° C. for 60 minutes, 25 μl of stop solution was added to stop the reaction. Conversion rate data was read from Caliper EZ Reader II (Caliper Life Sciences). The conversion rate data was converted into inhibition rate data. […] The curve was plotted with compound concentration and inhibition rate as horizontal and vertical coordinates, and the IC50 was calculated by fitting the curve using XLFit excel add-in version 4.3.1 software. Inhibition rate %=(max-conversion rate)/(max-min)×100.
smiles,measurement,setting,value
"CC(=O)c1c(C)c2cnc(Nc3ccc(C4CCN(CCS(C)(=O)=O)CC4)cn3)nc2n(C2CCCC2)c1=O [Compound 1, 6-acetyl-8-cyclopentyl-5-methyl-2-((5-(1-(2-(methylsulfonyl)ethyl)piperidin-4-yl)pyridin-2-yl)amino)pyrido[2,3-d]pyrimidin-7(8H)-one]",IC50,ZR-75-1,100 to 500 nM
same,IC50,[1]; read-out: IC50 (nM) G1 arrest,41.7 nM
same,IC50,[1]; read-out: IC50 (nM) S decrease,46.1 nM
same,IC50,CDK2,> 500 nM
